{
  "source": "patent US7109193B2",
  "about": "“Tricyclic diazepines tocolytic oxytocin receptor antagonists” (Wyeth, priority 2001, dated 2006)",
  "data": [
    {"molecular_target": "T1, human oxytocin receptor (Homo sapiens, UniProt P30559)", "T1 construct": "host or cells: CHO cells (pcDNA3.1 vector)", "T1 sequence (P30559 1-389)": "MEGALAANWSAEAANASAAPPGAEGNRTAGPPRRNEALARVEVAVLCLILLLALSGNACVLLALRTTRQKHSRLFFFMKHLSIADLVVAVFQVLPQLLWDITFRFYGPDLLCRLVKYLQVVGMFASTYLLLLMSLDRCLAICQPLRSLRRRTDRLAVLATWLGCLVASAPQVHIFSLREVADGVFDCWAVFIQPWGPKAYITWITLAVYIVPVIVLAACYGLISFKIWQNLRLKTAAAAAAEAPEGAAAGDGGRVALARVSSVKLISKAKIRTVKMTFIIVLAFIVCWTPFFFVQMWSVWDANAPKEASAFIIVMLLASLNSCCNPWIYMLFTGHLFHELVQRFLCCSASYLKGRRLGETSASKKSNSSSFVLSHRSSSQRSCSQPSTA", "experiment": "Oxytocin binding in Chinese Hamster Ovary cell membranes expressing human oxytocin receptors", "details": "100 nM, CHO cell membranes, [3H]oxytocin, values without parentheses", "units": {"OT % inhibition @ 100% nM": "%"}, "values": [
      {"smiles": "COc1cccc(-c2ccc(C(=O)N3Cc4ccc(C(=O)NCCC5CCCN5C)n4Cc4ccccc43)cc2C)c1", "note": "(centres unmarked) [Example 164, 10-[(3′-Methoxy-2-methyl[1′1′-biphenyl]-4-yl)carbonyl]-N-[2-(1-methyl-2-pyrrolidinyl)ethyl]-10,11-dihydro-5H-pyrrolo[2,1-c][1,4]benzodiazepine-3-carboxamide]", "OT % inhibition @ 100% nM": 54},
      {"smiles": "Cc1cccc(N2CCN(C(=O)c3ccc4n3Cc3ccccc3N(C(=O)c3ccc(-c5ccccc5C(F)(F)F)c(C)c3)C4)CC2C)c1", "note": "(centres unmarked) [Example 5, [3-Methyl-4-(3-methyl-phenyl)-piperazin-1-yl]-[10-(2-methyl-2′-trifluoromethyl-[1,1′-biphenyl]-4-yl)carbonyl]-10,11-dihydro-5H-pyrrolo[2,1-c][1,4]benzodiazepin-3-yl-methanone]", "OT % inhibition @ 100% nM": 24},
      {"smiles": "COc1cc(C(=O)N2Cc3ccc(C(=O)N4CC[C@@H](N(C)C)C4)n3Cc3ccccc32)ccc1-n1c(C)ccc1C", "note": "[Example 322, [(3R)-3-(Dimethylamino)pyrrolidinyl]{10-[4-(2,5-dimethyl-1H-pyrrol-1-yl)-3-methoxybenzoyl]-10,11-dihydro-5H-pyrrolo[2,1-c][1,4]benzodiazepin-3-yl}methanone]", "OT % inhibition @ 100% nM": 66},
      {"smiles": "O=C(c1ccc2n1Cc1ccccc1N(C(=O)c1ccc(-c3cccc4ccccc34)cc1Cl)C2)N1CCC(N2CCCCC2)CC1", "note": "[Example 121]", "OT % inhibition @ 100% nM": 0},
      {"smiles": "COc1cc(C(=O)N2Cc3ccc(C(=O)N4CC[C@@H](N(C)C)C4)n3Cc3ccccc32)ccc1-c1cccc2ccccc12", "note": "[Example 276, [(3R)-3-(Dimethylamino)pyrrolidinyl]{10-[3-methoxy-4-(1-naphthyl)benzoyl]-10,11-dihydro-5H-pyrrolo[2,1-c][1,4]benzodiazepin-3-yl}methanone]", "OT % inhibition @ 100% nM": 74},
      {"smiles": "Cc1ccccc1-c1ccc(C(=O)N2Cc3ccc(C(=O)N4CCC[C@H]4CN4CCCC4)n3Cc3ccccc32)cc1C", "note": "[Example 260, {10-[(2,2′-Dimethyl[1,1′-biphenyl]-4-yl)carbonyl]-10,11-dihydro-5H-pyrrolo[2,1-c][1,4]benzodiazepin-3-yl}[(2S)-2-(1-pyrrolidinylmethyl)pyrrolidinyl]methanone]", "OT % inhibition @ 100% nM": 102}
    ]},
    {"molecular_target": "T1, human oxytocin receptor", "experiment": "Oxytocin binding in Chinese Hamster Ovary cell membranes expressing human oxytocin receptors", "details": "100 nM, CHO cell membranes, [3H]oxytocin, values without parentheses, read-out: OT % inhibition @ 100% nM", "units": {"inhibition at 0.1 µM": "%"}, "values": [
      {"smiles": "COc1ccccc1-c1ccc(C(=O)N2Cc3ccc(C(=O)N4CCC(N5CCCC5)CC4)n3Cc3ccccc32)cc1", "note": "[Example 140, {10-[(2′-Methoxy[1,1′-biphenyl]-4-yl)carbonyl]-10,11-dihydro-5H-pyrrolo[2,1-c][1,4]benzodiazepin-3-yl}[4-(1-pyrrolidinyl)-1-piperidinyl]methanone]", "inhibition at 0.1 µM": 87},
      {"smiles": "O=C(NCCCn1ccnc1)c1ccc2n1Cc1ccccc1N(C(=O)c1ccc(-c3cccc4ccccc34)cc1Cl)C2", "note": "[Example 134, 10-[2-Chloro-4-(1-naphthyl)benzoyl]-N-[3-(1H-imidazol-1-yl)propyl]-10,11-dihydro-5H-pyrrolo[2,1-c][1,4]benzodiazepine-3-carboxamide]", "inhibition at 0.1 µM": 15},
      {"smiles": "COc1ccccc1-c1ccc(C(=O)N2Cc3ccc(C(=O)N4CCC(N5CCCCC5)CC4)n3Cc3ccccc32)cc1OC", "note": "[Example 119, {10-[(2,2′-Dimethoxy-[1,1′-biphenyl]-4-yl)carbonyl]-10,11-dihydro-5H-pyrrolo[2,1-c][1,4]benzodiazepin-3-yl}[4-(1-piperidinyl)-1-piperidinyl]methanone]", "inhibition at 0.1 µM": 58},
      {"smiles": "COc1ccccc1-c1ccc(C(=O)N2Cc3ccc(C(=O)NCCCn4ccnc4)n3Cc3ccccc32)cc1OC", "note": "[Example 132, 10-[(2,2′-Dimethoxy[1,1′-biphenyl]-4-yl)carbonyl]-N-[3-(1H-imidazol-1-yl)propyl]-10,11-dihydro-5H-pyrrolo[2,1-c][1,4]benzodiazepine-3-carboxamide]", "inhibition at 0.1 µM": 31},
      {"smiles": "Cc1ccccc1-c1ccc(C(=O)N2Cc3ccc(C(=O)N4CCC(N5CCCCC5)CC4)n3Cc3ccccc32)cc1C", "note": "[Example 113, {10-[(2-Methyl-2′-methyl[1,1′-biphenyl]-4-yl)carbonyl]-10,11-dihydro-5H-pyrrolo[2,1-c][1,4]benzodiazepin-3-yl}[4-(1-piperidinyl)-1-piperidinyl]methanone]", "inhibition at 0.1 µM": 97}
    ]}
  ]
}
